The experiment concerns the target Adenosine kinase (Rattus norvegicus, UniProt Q64640). In words: In vitro inhibition of Adenosine kinase of rat brain cytosol.

Each structure is given as a SMILES string. A value given as a limit tells only on which side of the number the result lay.

The source of these data is ChEMBL document CHEMBL1133950, “Synthesis and biological evaluation of clitocine analogues as adenosine kinase inhibitors” (Bioorg Med Chem Lett, 2001).

Sequence of Adenosine kinase (Q64640 whole entry): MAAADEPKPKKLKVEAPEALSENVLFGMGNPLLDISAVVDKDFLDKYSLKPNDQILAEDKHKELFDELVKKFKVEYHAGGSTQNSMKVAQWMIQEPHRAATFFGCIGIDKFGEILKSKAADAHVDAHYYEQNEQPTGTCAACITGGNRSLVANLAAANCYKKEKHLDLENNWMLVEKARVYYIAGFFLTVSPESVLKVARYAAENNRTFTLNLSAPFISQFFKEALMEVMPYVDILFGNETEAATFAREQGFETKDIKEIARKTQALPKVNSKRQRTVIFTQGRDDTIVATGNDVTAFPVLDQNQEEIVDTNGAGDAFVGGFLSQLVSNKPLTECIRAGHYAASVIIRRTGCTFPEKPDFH

One may read the IC50 as the concentration that inhibits the measured activity by half. A lower IC50 goes with greater potency. Regarding `Nc1ncnc(N[C@@H]2O[C@H](CO)[C@@H](O)[C@H]2O)c1C(=O)NCCO`, the IC50 was > 10 µM.
For the compound `Nc1ncnc(N[C@@H]2O[C@H](CBr)[C@@H](O)[C@H]2O)c1[N+](=O)[O-]`, the half-inhibitory concentration (IC50) was > 10 µM.
With `C[C@H]1O[C@@H](Nc2ncnc(N)c2[N+](=O)[O-])[C@H](O)[C@@H]1O` the figure was 4 µM.
Under `Nc1ncnc(N[C@@H]2O[C@H](CO)[C@@H](O)[C@H]2O)c1C1=NCCO1` stands 4 µM; under `Nc1ncnc(N[C@@H]2O[C@H](CO)[C@@H](O)[C@H]2O)c1[S+]([O-])c1ccccc1` (some centres undefined), > 10 µM.
Under `NC[C@H]1O[C@@H](Nc2ncnc(N)c2[N+](=O)[O-])[C@H](O)[C@@H]1O` stands 0.035 µM.
Compound `COC(=O)c1c(N)ncnc1N[C@@H]1O[C@H](CN)[C@@H](O)[C@H]1O` showed a concentration for half-maximal inhibition (IC50) of 0.002 µM.
Under `O=[N+]([O-])c1c(Nc2ccccc2)ncnc1N[C@@H]1O[C@H](CO)[C@@H](O)[C@H]1O` stands > 10 µM; under `COC(=O)c1cncnc1N[C@@H]1O[C@H](CN)[C@@H](O)[C@H]1O`, 0.004 µM; under `COC(=O)c1c(N)ncnc1N[C@@H]1O[C@H](CO)[C@@H](O)[C@H]1O`, 10 µM.
Under `COC(=O)c1cncnc1N[C@@H]1O[C@H](CO)[C@@H](O)[C@H]1O` stands 0.6 µM; under `COC(=O)c1c(Cl)ncnc1N[C@@H]1O[C@H](CO)[C@@H](O)[C@H]1O`, > 10 µM; under `COC(=O)c1c(N)ncnc1N[C@@H]1O[C@H](C)[C@@H](O)[C@H]1O`, 6.1 µM.
With `Nc1ncnc(N[C@@H]2O[C@H](CO)[C@@H](O)[C@H]2O)c1S(=O)(=O)c1ccccc1` the figure was > 10 µM.
